Measurements published in US20160287571A1, “PHARMACEUTICAL COMPOSITIONS COMPRISING ANTIBACTERIAL AGENTS” (priority 2013, published 2016).
Where two headings read alike, the source gives them in different places.

Key:
Format in all cases: cell-based, Acinetobacter baumannii
[1] = tested on: A. baumannii J 144 (OXA 51, OXA 23); assay: MIC in Muller Hinton Agar (CLSI agar dilution); details: Acinetobacter baumannii
Experimental: (§1) The antibacterial activity of combinations according to the invention against resistant bacterial strains was investigated. Minimum Inhibitory Concentration (MIC) for the combinations according to invention was determined in Muller Hinton Agar (MHA) (BD, USA) according to Clinical and Laboratory Standards Institute (CLSI) recommendations (Clinical and Laboratory Standards Institute (CLSI), Performance Standards for Antimicrobial Susceptibility Testing, 20th Informational Supplement, M 100-S20, Volume 30, No. 1, 2010). Typically, the test strains were adjusted to deliver about 10^4 CFU per spot with a multipoint inoculator (Applied Quality Services, UK). The plates were pored with MHA containing doubling concentration range of the test combinations according to invention. The plates were inoculated and were incubated at 35° C. for 18 hours.

[2] = tested on: A. baumannii NCTC 13303 (OXA 51, OXA 26); assay: MIC in Muller Hinton Agar (CLSI agar dilution); details: Acinetobacter baumannii
Experimental: as §1

[3] = tested on: A. baumannii G 156 (OXA 51, OXA 23); assay: MIC in Muller Hinton Agar (CLSI agar dilution); details: Acinetobacter baumannii
Experimental: as §1

[4] = tested on: A. baumannii NCTC 13305 (OXA 51, OXA 58); assay: MIC in Muller Hinton Agar (CLSI agar dilution); details: Acinetobacter baumannii
Experimental: as §1

[5] = tested on: A. baumannii NCTC 13302 (OXA 51, OXA 25); assay: MIC in Muller Hinton Agar (CLSI agar dilution); details: Acinetobacter baumannii
Experimental: as §1

[6] = tested on: A. baumannii M 126 (OXA 51, OXA 23); assay: MIC in Muller Hinton Agar (CLSI agar dilution); details: Acinetobacter baumannii
Experimental: as §1

[7] = tested on: A. baumannii Q 1460648 (OXA 51, OXA 23); assay: MIC in Muller Hinton Agar (CLSI agar dilution); details: Acinetobacter baumannii
Experimental: as §1

[8] = tested on: A. baumannii NCTC 13301 (OXA 51, OXA 23); assay: MIC in Muller Hinton Agar (CLSI agar dilution); details: Acinetobacter baumannii
Experimental: as §1

[9] = tested on: A. baumannii NCTC 13304 (OXA 51, OXA 27); assay: MIC in Muller Hinton Agar (CLSI agar dilution); details: Acinetobacter baumannii
Experimental: as §1

[10] = tested on: A. baumannii NCTC 13302 (OXA 51, OXA 25); assay: Time kill study; details: for Bacterial count: agent alone at 8 mcg/ml, initial count 6.54 log CFU/ml
Experimental: (§2) The synergistic killing effect of the combinations according to invention was studied using time kill studies. In a typical time kill study, freshly grown cultures were diluted to the required cell density (initial starting inoculum) in Cation adjusted Muller Hinton broth medium (BD, USA). The antibacterial agents (either alone or in combination) at the required concentrations were added into the culture-containing medium. The samples were incubated under shaking condition (120 rpm) at 37° C. Enumeration of viable bacterial count was done every 2 hour by diluting in normal saline and plating on to the Tryptic Soya Agar plates (BD, USA). The plates were incubated for 24 hours to arrive at the viable bacterial count. The results are expressed in terms of Log CFU per […]. In general, the decrease of 1 Log CFU/ml, corresponds to 90% killing of bacteria. Similarly, 2 Log CFU/ml reductions indicates 99% killing of bacteria and 3 Log CFU/ml reductions is equal to 99.9% killing of bacteria.

[11] = tested on: A. baumannii NCTC 13304 (OXA 51, OXA 27); assay: Time kill study; details: for Bacterial count: agent alone at 8 mcg/ml, initial count 6.06 log CFU/ml
Experimental: as §2

## CC1(C)[C@H](C(=O)O)N2C(=O)C[C@H]2S1(=O)=O [Sulbactam, sulbactam]
[1]; read-out: MIC of Sulbactam, In presence of Compound of Formula (I) (4 mcg/ml), J 144
  MIC: 2 mg/L
[1]; read-out: MIC of Sulbactam, In presence of Compound of Formula (I) (8 mcg/ml), J 144
  MIC: 1 mg/L
[1]; agent alone, A. baumannii J 144
  MIC: 16 mg/L
[2]; NCTC13303, read-out: MIC of Sulbactam, In presence of Compound of Formula (I) (4 mcg/ml), NCTC 13303
  MIC: 8 mg/L
[2]; NCTC13303, read-out: MIC of Sulbactam, In presence of Compound of Formula (I) (8 mcg/ml), NCTC 13303
  MIC: 4 mg/L
[2]; NCTC13303, agent alone, A. baumannii NCTC 13303
  MIC: 16 mg/L
[3]; read-out: MIC of Sulbactam, In presence of Compound of Formula (I) (4 mcg/ml), G 156
  MIC: 4 mg/L
[3]; read-out: MIC of Sulbactam, In presence of Compound of Formula (I) (8 mcg/ml), G 156
  MIC: 2 mg/L
[3]; agent alone, A. baumannii G 156
  MIC: 8 mg/L
[4]; NCTC13305, read-out: MIC of Sulbactam, In presence of Compound of Formula (I) (4 mcg/ml), NCTC 13305
  MIC: 2 mg/L
[4]; NCTC13305, read-out: MIC of Sulbactam, In presence of Compound of Formula (I) (8 mcg/ml), NCTC 13305
  MIC: 1 mg/L
[4]; NCTC13305, agent alone, A. baumannii NCTC 13305
  MIC: 4 mg/L
[5]; NCTC13302, read-out: MIC of Sulbactam, In presence of Compound of Formula (I) (4 mcg/ml), NCTC 13302
  MIC: 4 mg/L
[5]; NCTC13302, read-out: MIC of Sulbactam, In presence of Compound of Formula (I) (8 mcg/ml), NCTC 13302
  MIC: 2 mg/L
[5]; NCTC13302, agent alone, A. baumannii NCTC 13302
  MIC: 32 mg/L
[6]; read-out: MIC of Sulbactam, In presence of Compound of Formula (I) (4 mcg/ml), M 126
  MIC: 8 mg/L
[6]; read-out: MIC of Sulbactam, In presence of Compound of Formula (I) (8 mcg/ml), M 126
  MIC: 2 mg/L
[6]; agent alone, A. baumannii M 126
  MIC: 32 mg/L
[7]; read-out: MIC of Sulbactam, In presence of Compound of Formula (I) (4 mcg/ml), Q 1460648
  MIC: 4 mg/L
[7]; read-out: MIC of Sulbactam, In presence of Compound of Formula (I) (8 mcg/ml), Q 1460648
  MIC: 2 mg/L
[7]; agent alone, A. baumannii Q 1460648
  MIC: 16 mg/L
[8]; NCTC13301, read-out: MIC of Sulbactam, In presence of Compound of Formula (I) (4 mcg/ml), NCTC 13301
  MIC: 4 mg/L
[8]; NCTC13301, read-out: MIC of Sulbactam, In presence of Compound of Formula (I) (8 mcg/ml), NCTC 13301
  MIC: 2 mg/L
[8]; NCTC13301, agent alone, A. baumannii NCTC 13301
  MIC: 32 mg/L
[9]; NCTC13304, read-out: MIC of Sulbactam, In presence of Compound of Formula (I) (4 mcg/ml), NCTC 13304
  MIC: 2 mg/L
[9]; NCTC13304, read-out: MIC of Sulbactam, In presence of Compound of Formula (I) (8 mcg/ml), NCTC 13304
  MIC: 1 mg/L
[9]; NCTC13304, agent alone, A. baumannii NCTC 13304
  MIC: 8 mg/L
[10]; 2 hours
  Bacterial count: 5.74 Log CFU/ml
[10]; 4 hours
  Bacterial count: 5.09 Log CFU/ml
[10]; 6 hours
  Bacterial count: 6.04 Log CFU/ml
[10]; 8 hours
  Bacterial count: 7.46 Log CFU/ml
[10]; A. baumannii NCTC 13302, summary of Table 3
  Effect on bacterial counts throughout the duration of the study (in words): did not reduce the bacterial counts
[11]; 2 hours
  Bacterial count: 7.73 Log CFU/ml
[11]; 4 hours
  Bacterial count: 7.07 Log CFU/ml
[11]; 6 hours
  Bacterial count: 8.2 Log CFU/ml
[11]; A. baumannii NCTC 13304, summary of Table 4
  Effect on bacterial counts throughout the duration of the study (in words): did not reduce the bacterial counts
